Literature values as cited in patent US7056909B2, “Alpha v integrin receptor antagonists” (Merck & Co., Inc., priority 2000, dated 2006).

Conditions: postmenopausal osteoporotic women, median of 22 months of treatment

In the case of “hPTH(1–34): human parathyroid hormone 1-34 fragment (SVSEIQLMHNLGKHLNSMERVEWLRKKLQDVHNF; Parathyroid hormone; UniProt P01270 32-65, looked up, fragment)”, the “reduction in nonvertebral fractures” value is listed as 54% and the “reduction in spine fractures” value is listed as no less than 65%.
